Test results as given in patent publication US12539292B2, “BRM targeting compounds and associated methods of use” (Arvinas Operations, Inc., priority 2018, dated 2026).
Read-outs that look alike come from different tables or passages of the source.

Target: T1, BRM (Homo sapiens, UniProt P51531)
T1 construct: In-Cell Western Screen of BRM Degradation in SW1573 Cells; endogenous in cells; host or cells: SW1573
Assay: In-cell Western screen of BRM degradation in SW1573 cells (Dmax and DC50)
Type: cell-based
Summary of the method: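 After adhering overnight, cells received compound for 18-20 hours. They were then washed in cold DPBS, fixed with 4% PFA for 20 min and permeabilized for 30 min. Blocking and fluorescent secondary staining followed before imaging.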

[1] = BRM degradation, read-out: BRM DC50
[2] = SW1573, % degraded, when tested at the top concentration of between 0.3 and 10 μM, read-out: BRM Dmax (%)
[3] = BRM degradation, SW1573 cells, read-out: DC50
[4] = BRM degradation, SW1573 cells, when tested at the top concentration of between 0.3 and 10 μM, read-out: Dmax (%) (% degraded)
[5] = BRM degradation, SW1573 cells, tested at the top concentration of between 0.3 and 10 μM, read-out: Dmax (%) (% degraded)
[6] = target protein degradation, read-out: BRM DC50
[7] = BRM degradation, SW1573 cells, read-out: Dmax (% degraded)

T1 sequence (P51531 whole entry): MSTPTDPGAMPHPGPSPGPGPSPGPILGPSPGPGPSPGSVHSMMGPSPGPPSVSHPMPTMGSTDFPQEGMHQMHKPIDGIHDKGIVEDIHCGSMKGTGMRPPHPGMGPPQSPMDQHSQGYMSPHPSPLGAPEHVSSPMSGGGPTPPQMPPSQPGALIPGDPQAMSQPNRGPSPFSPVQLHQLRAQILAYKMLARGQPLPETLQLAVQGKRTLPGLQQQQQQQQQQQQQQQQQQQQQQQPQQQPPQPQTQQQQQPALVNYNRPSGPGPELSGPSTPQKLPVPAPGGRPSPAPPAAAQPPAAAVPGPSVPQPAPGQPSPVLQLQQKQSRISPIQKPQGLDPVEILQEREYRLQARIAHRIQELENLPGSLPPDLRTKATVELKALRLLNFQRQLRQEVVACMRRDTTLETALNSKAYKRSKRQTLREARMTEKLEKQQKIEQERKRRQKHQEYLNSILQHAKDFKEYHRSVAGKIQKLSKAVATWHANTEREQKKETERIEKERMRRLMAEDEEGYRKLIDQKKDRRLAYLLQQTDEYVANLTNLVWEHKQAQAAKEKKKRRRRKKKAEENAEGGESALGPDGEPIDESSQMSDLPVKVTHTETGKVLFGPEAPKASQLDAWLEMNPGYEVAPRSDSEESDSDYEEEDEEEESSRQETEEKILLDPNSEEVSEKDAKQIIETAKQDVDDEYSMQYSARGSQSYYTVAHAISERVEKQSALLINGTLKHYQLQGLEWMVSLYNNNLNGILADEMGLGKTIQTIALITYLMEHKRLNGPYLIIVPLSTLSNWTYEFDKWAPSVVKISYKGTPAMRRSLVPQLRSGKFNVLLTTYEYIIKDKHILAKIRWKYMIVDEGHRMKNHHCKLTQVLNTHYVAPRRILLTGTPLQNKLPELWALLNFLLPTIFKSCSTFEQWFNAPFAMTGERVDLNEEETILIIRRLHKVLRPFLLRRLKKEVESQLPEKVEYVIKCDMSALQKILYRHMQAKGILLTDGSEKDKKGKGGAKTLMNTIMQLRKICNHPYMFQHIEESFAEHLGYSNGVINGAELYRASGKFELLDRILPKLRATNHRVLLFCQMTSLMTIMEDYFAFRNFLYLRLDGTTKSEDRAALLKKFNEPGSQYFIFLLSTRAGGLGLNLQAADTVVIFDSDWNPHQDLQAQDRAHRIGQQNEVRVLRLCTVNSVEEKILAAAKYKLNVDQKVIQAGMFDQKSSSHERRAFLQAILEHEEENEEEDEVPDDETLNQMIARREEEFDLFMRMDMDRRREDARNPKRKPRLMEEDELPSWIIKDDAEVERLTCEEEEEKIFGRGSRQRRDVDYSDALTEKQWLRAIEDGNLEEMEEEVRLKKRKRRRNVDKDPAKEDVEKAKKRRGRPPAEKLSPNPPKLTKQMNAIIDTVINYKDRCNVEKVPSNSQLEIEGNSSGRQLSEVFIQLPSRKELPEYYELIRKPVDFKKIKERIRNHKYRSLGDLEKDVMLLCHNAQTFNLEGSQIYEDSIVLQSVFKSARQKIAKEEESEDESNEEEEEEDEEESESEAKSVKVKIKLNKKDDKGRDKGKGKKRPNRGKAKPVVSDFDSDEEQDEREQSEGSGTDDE

Compound	DC50 [3] [nM]	Dmax [4] [%]	further results
Cc1ncsc1-c1ncc([C@@H](C)NC(=O)[C@@H]2C[C@@H](O)CN2C(=O)C(c2cc(OCCN3CCC(O[C@H]4C[C@H](Oc5cc(N6C7CCC6CN(c6cc(-c8ccccc8O)nnc6N)C7)ccn5)C4)CC3)no2)C(C)C)cc1F (stereo partly drawn) [compound 501, (2S,4R)-1-(2-(3-(2-(4-((1r,3r)-3-((4-(3-(3-amino-6-(2-hydroxyphenyl)pyridazin-4-yl)-3,8-diazabicyclo[3.2.1]octan-8-yl)pyridin-2-yl)oxy)cyclobutoxy)piperidin-1-yl)ethoxy)isoxazol-5-yl)-3-methylbutanoyl)-N-((R)-1-(5-fluoro-6-(4-methylthiazol-5-yl)pyridin-3-yl)ethyl)-4-hydroxypyrrolidine-2-carboxamide]	–	–	DC50 [1]: < 2.5 nM; Dmax [2]: > 75%
Cc1ncsc1-c1ccc([C@H](C)NC(=O)[C@@H]2C[C@@H](O)CN2C(=O)[C@@H](NC(=O)COCCOCCOCCOCCOCCOCCOCCOc2cc(N3C4CCC3CN(c3cc(-c5ccccc5O)nnc3N)C4)ccn2)C(C)(C)C)cc1 [compound 35, (2S,4R)-1-[(2S)-2-[1-(4-[3-[3-amino-6-(2-hydroxyphenyl)pyridazin-4-yl]-3,8-diazabicyclo[3.2.1]octan-8-yl]pyridin-2-yl)-1,4,7,10,13,16,19,22-octaoxatetracosan-24-amido]-3,3-dimethylbutanoyl]-4-hydroxy-N-[(1S)-1-[4-(4-methyl-1,3-thiazol-5-yl)phenyl]ethyl]pyrrolidine-2-carboxamide]	2.5 to 10	> 75	–
CC[C@H](NC(=O)[C@@H]1C[C@@H](O)CN1C(=O)C(c1cc(OCCN2CCC(O[C@H]3C[C@H](Oc4cc(N5C6CCC5CN(c5cc(-c7ccccc7O)nnc5N)C6)ccn4)C3)CC2)no1)C(C)C)c1ccc(-c2scnc2C)cc1 (stereo partly drawn) [compound 351, (2S,4R)-1-((2R)-2-(3-(2-(4-((1r,3R)-3-((4-(3-(3-amino-6-(2-hydroxyphenyl)pyridazin-4-yl)-3,8-diazabicyclo[3.2.1]octan-8-yl)pyridin-2-yl)oxy)cyclobutoxy)piperidin-1-yl)ethoxy)isoxazol-5-yl)-3-methylbutanoyl)-4-hydroxy-N-((S)-1-(4-(4-methylthiazol-5-yl)phenyl)propyl)pyrrolidine-2-carboxamide]	< 2.5	–	Dmax [5]: > 75%
Cc1ncsc1-c1ccc([C@H](C)NC(=O)[C@@H]2C[C@@H](O)CN2C(=O)[C@H](c2cc(OC/C=C/c3ncc(O[C@H]4C[C@H](Oc5cc(N6C7CCC6CN(c6cc(-c8ccccc8O)nnc6N)C7)ccn5)C4)cn3)no2)C(C)C)cc1 [compound 391, (2S,4R)-1-((2S)-2-(3-(((E)-3-(5-((1r,3S)-3-((4-(3-(3-amino-6-(2-hydroxyphenyl)pyridazin-4-yl)-3,8-diazabicyclo[3.2.1]octan-8-yl)pyridin-2-yl)oxy)cyclobutoxy)pyrimidin-2-yl)allyl)oxy)isoxazol-5-yl)-3-methylbutanoyl)-4-hydroxy-N-((S)-1-(4-(4-methylthiazol-5-yl)phenyl)ethyl)pyrrolidine-2-carboxamide]	–	–	DC50 [6]: > 30 nM
CC[C@@H](NC(=O)[C@@H]1C[C@@H](O)CN1C(=O)[C@@H](c1cc(N2CCC(CN3CCC(O[C@H]4C[C@H](Oc5cc(N6C7CCC6CN(c6cc(-c8ccccc8O)nnc6N)C7)ccn5)C4)CC3)CC2)no1)C(C)C)c1ccc(-c2scnc2C)cc1 [compound 663, (2S,4R)-1-((2R)-2-(3-(4-((4-((1r,3r)-3-((4-(3-(3-amino-6-(2-hydroxyphenyl)pyridazin-4-yl)-3,8-diazabicyclo[3.2.1]octan-8-yl)pyridin-2-yl)oxy)cyclobutoxy)piperidin-1-yl)methyl)piperidin-1-yl)isoxazol-5-yl)-3-methylbutanoyl)-4-hydroxy-N-((R)-1-(4-(4-methylthiazol-5-yl)phenyl)propyl)pyrrolidine-2-carboxamide]	2.5 to 10	–	Dmax [7]: 50 to 75%
Cc1ncsc1-c1ccc([C@H](C)NC(=O)[C@@H]2C[C@@H](O)CN2C(=O)[C@@H](c2cc(OCCN3C[C@@H]4C[C@H]3CN4CCOc3cc(N4C5CCC4CN(c4cc(-c6ccccc6O)nnc4N)C5)ccn3)no2)C(C)C)cc1 [compound 135, (2S,4R)-1-((2R)-2-(3-(2-((1S,4S)-5-(2-((4-(3-(3-amino-6-(2-hydroxyphenyl)pyridazin-4-yl)-3,8-diazabicyclo[3.2.1]octan-8-yl)pyridin-2-yl)oxy)ethyl)-2,5-diazabicyclo[2.2.1]heptan-2-yl)ethoxy)isoxazol-5-yl)-3-methylbutanoyl)-4-hydroxy-N-((S)-1-(4-(4-methylthiazol-5-yl)phenyl)ethyl)pyrrolidine-2-carboxamide]	< 2.5	> 75	–
Cc1cc([C@H](C(=O)N2C[C@H](O)C[C@H]2C(=O)N[C@H](COCCCCCc2cc(-c3ccccc3O)nnc2N)c2ccc(-c3scnc3C)cc2)C(C)C)on1 [compound 528, (2S,4R)-N-((S)-2-((5-(3-amino-6-(2-hydroxyphenyl)pyridazin-4-yl)pentyl)oxy)-1-(4-(4-methylthiazol-5-yl)phenyl)ethyl)-4-hydroxy-1-((R)-3-methyl-2-(3-methylisoxazol-5-yl)butanoyl)pyrrolidine-2-carboxamide]	–	–	DC50 [1]: > 30 nM
Cc1ncsc1-c1ccc([C@H](C)NC(=O)[C@@H]2C[C@@H](O)CN2C(=O)[C@@H](c2cc(N3CCC(CN4CCC(O[C@H]5C[C@H](Oc6cc(N7CCOC8(CCN(c9cc(-c%10ccccc%10O)nnc9N)CC8)C7)ccn6)C5)CC4)CC3)no2)C(C)C)cc1 [compound 716, (2S,4R)-1-((R)-2-(3-(4-((4-((1r,3r)-3-((4-(9-(3-amino-6-(2-hydroxyphenyl)pyridazin-4-yl)-1-oxa-4,9-diazaspiro[5.5]undecan-4-yl)pyridin-2-yl)oxy)cyclobutoxy)piperidin-1-yl)methyl)piperidin-1-yl)isoxazol-5-yl)-3-methylbutanoyl)-4-hydroxy-N-((S)-1-(4-(4-methylthiazol-5-yl)phenyl)ethyl)pyrrolidine-2-carboxamide]	< 2.5	–	Dmax [7]: > 75%
Cc1ncsc1-c1ccc(CNC(=O)[C@@H]2C[C@@H](O)CN2C(=O)[C@H](c2cc(OCCN3CCN(CCOCCn4cc(-c5cc(-c6ccccc6O)nnc5N)cn4)CC3)no2)C(C)C)cc1 [compound 165, (2S,4R)-1-((S)-2-(3-(2-(4-(2-(2-(4-(3-amino-6-(2-hydroxyphenyl)pyridazin-4-yl)-1H-pyrazol-1-yl)ethoxy)ethyl)piperazin-1-yl)ethoxy)isoxazol-5-yl)-3-methylbutanoyl)-4-hydroxy-N-(4-(4-methylthiazol-5-yl)benzyl)pyrrolidine-2-carboxamide]	> 30	–	Dmax [5]: < 50%
Cc1ncsc1-c1cnc([C@@H](C)NC(=O)[C@@H]2C[C@@H](O)CN2C(=O)[C@@H](c2cc(OCCN3CCC(O[C@H]4C[C@H](Oc5cc(N6C7CCC6CN(c6cc(-c8ccccc8O)nnc6N)C7)ccn5)C4)CC3)no2)C(C)C)cn1 [compound 441, (2S,4R)-1-((2R)-2-(3-(2-(4-((1r,3R)-3-((4-(3-(3-amino-6-(2-hydroxyphenyl)pyridazin-4-yl)-3,8-diazabicyclo[3.2.1]octan-8-yl)pyridin-2-yl)oxy)cyclobutoxy)piperidin-1-yl)ethoxy)isoxazol-5-yl)-3-methylbutanoyl)-4-hydroxy-N-((R)-1-(5-(4-methylthiazol-5-yl)pyrazin-2-yl)ethyl)pyrrolidine-2-carboxamide]	–	–	Dmax [2]: > 75%; DC50 (degradation of BRM, read-out: BRM DC50): 2.5 to 10 nM
Cc1ncsc1-c1ccc(CNC(=O)[C@@H]2C[C@@H](O)CN2C(=O)[C@H](c2cc(OCCOCCOCCCCN3CCOC4(CCN(c5cc(-c6ccccc6O)nnc5N)CC4)C3)no2)C(C)C)cc1 [compound 36, (2S,4R)-1-[(2S)-2-(3-[2-[2-(4-[9-[3-amino-6-(2-hydroxyphenyl)pyridazin-4-yl]-1-oxa-4,9-diazaspiro[5.5]undecan-4-yl]butoxy)ethoxy]ethoxy]-1,2-oxazol-5-yl)-3-methylbutanoyl]-4-hydroxy-N-[[4-(4-methyl-1,3-thiazol-5-yl)phenyl]methyl]pyrrolidine-2-carboxamide]	> 30	50 to 75	–
Cc1ncsc1-c1ccc(CNC(=O)[C@@H]2C[C@@H](O)CN2C(=O)[C@@H](NC(=O)COCCOCCOCCOCCOCCn2cc(-c3cc(-c4ccccc4O)nnc3N)cn2)C(C)(C)C)cc1 [compound 4, (2S,4R)-1-((S)-20-(4-(3-amino-6-(2-hydroxyphenyl)pyridazin-4-yl)-1H-pyrazol-1-yl)-2-(tert-butyl)-4-oxo-6,9,12,15,18-pentaoxa-3-azaicosanoyl)-4-hydroxy-N-(4-(4-methylthiazol-5-yl)benzyl)pyrrolidine-2-carboxamide]	> 30	> 75	–
Cc1ncsc1-c1ccc([C@H](C)NC(=O)[C@@H]2C[C@@H](O)CN2C(=O)[C@H](c2cc(OCCC3CCN(C(=O)[C@H]4C[C@H](CN5CCC([C@@H](C)n6cc(-c7cc(-c8ccccc8O)nnc7N)cn6)CC5)C4)CC3)no2)C(C)C)cc1 [compound 455, (2S,4R)-1-((S)-2-(3-(2-(1-((1R,3S)-3-((4-((R)-1-(4-(3-amino-6-(2-hydroxyphenyl)pyridazin-4-yl)-1H-pyrazol-1-yl)ethyl)piperidin-1-yl)methyl)cyclobutane-1-carbonyl)piperidin-4-yl)ethoxy)isoxazol-5-yl)-3-methylbutanoyl)-4-hydroxy-N-((S)-1-(4-(4-methylthiazol-5-yl)phenyl)ethyl)pyrrolidine-2-carboxamide]	–	–	Dmax [2]: > 75%; DC50 [6]: < 2.5 nM
